Test results reported in patent US4187312A, “3-Hydroxy-4,4-dimethyl-5-pyrrolidone derivatives” (Beecham Group Limited, priority 1975, dated 1980).

Legend:
[1] = test system: pentagastrin-stimulated gastric acid secretion; experiment: inhibition of pentagastrin-stimulated gastric acid secretion in the perfused rat stomach preparation (Ghosh and Schild preparation); format: in vivo; details: 500 μg/kg, intravenously
Method: The anti-secretory activity of the compounds was determined by their inhibition of pentagastrin-stimulated gastric acid secretion in the perfused rat stomach preparation (Ghosh and Schild preparation).

[2] = test system: 5-hydroxytryptamine-induced bronchoconstriction; experiment: inhibition of 5-hydroxytryptamine-induced bronchoconstriction in the anaesthetised, artificially respired guinea pig (Konzett-Rossler preparation); format: in vivo; details: Cavia porcellus, iv, intravenously, read-out: inhibition of bronchoconstriction, IC50
Source text: The compounds were examined for their ability to inhibit 5-hydroxytryptamine-induced bronchoconstriction in the anaesthetised, artificially respired guinea pig (Konzett-Rossler preparation).

mice = experiment: toxicity in mice; format: in vivo; details: dosed up to 900 mg/kg, subcutaneously
[3] = test system: aerosol administered histamine challenge; experiment: protection of conscious guinea pigs from an aerosol administered histamine challenge; format: in vivo, guinea pig; details: 30 minutes before continuous aerosol of histamine
Method: The compounds were examined for their ability to protect conscious guinea pigs from an aerosol administered histamine challenge. The compounds were given 30 minutes before the animals were challenged with a continuous aerosol of histamine.

Row | Structure (SMILES) | inhibition of acid secretion [1] | ED50 [2] | toxic symptoms (mice) | time taken to elicit a pre-convulsive cough compared with control animals ([3]; 2.5 mg/kg, intra-peritoneally) | time taken to elicit a pre-convulsive cough compared with control animals ([3]; 10 mg/kg orally)
1 | CCCCCCC(C)(O)CCN1C(=O)C(C)(C)C(=O)C1CCCCCCC(=O)OCC (centres unmarked) [4,4-Dimethyl-2-(6'-ethoxycarbonyl-n-hexyl)-1-(3"-hydroxy-3"-methyl-n-nonyl)-pyrrolidin-3,5-dione] | inhibited acid secretion | ~0.01 mg/kg | No toxic symptoms were observed | – | –
2 | CCCCCCC(C)(O)CCN1C(=O)C(C)(C)C(=O)C1CCCCCCC(=O)O (centres unmarked) [2-(6'-Carboxy-n-hexyl)-4,4-dimethyl-1-(3"-hydroxy-3"-methyl-n-nonyl)pyrrolidin-3,5-dione] | – | – | – | significantly prolonged | significantly prolonged
